According to patent publication US4544659A, “Schistosomicidal acridanone hydrazones” (Hoffman-La Roche Inc., priority 1982, dated 1985):

Assays:
[1] = test system: Schistosoma mansoni; assay: Schistosomicidal activity in infected mice (reduction in number of worms, single peroral treatment); assay type: in vivo, Schistosoma mansoni (Liberia strain) in albino mice; settings: po, read-out: VD50 (vermicidal dosage which brings about a 50 percent reduction in the number of worms)
Experimental: Albino mice weighing 15-18 g are infected subcutaneously with 60±5 cercaria of a Liberia strain of Schistosoma mansoni. Forty-six (46) days after infection, the animals are treated once perorally with the test substance. There are 5-10 animals used per substance and dosage. There are 10 untreated animals used as controls. The autopsies are carried out after 60 days. Whereupon worm pairs and individual worms in the mesenteric veins, portal vein and liver are dissected out and counted.
For the evaluation, the percentage reduction in parasites in treated animals in comparison to untreated control animals is calculated. The VD50 is determined according to the Probit method. The VD50 is that vermicidal dosage which brings about a 50 percent reduction in the number of worms.
(§1) The Table which follows contains the results obtained with representative compounds of the invention. In the Table there are given VD50 in mg/kg p.o. and the LD50 in mg/kg in the case of single oral administration to mice.

[2] = Acute toxicity, single oral administration to mice; settings: mouse, in vivo, p.o.
Text: as §1

SMILES | ED50 [1] [mg/kg] | LD50 [2] [mg/kg]
c1ccc2c(=NN=C3NCCS3)c3ccccc3[nH]c2c1 [9-acridanone (2-thiazolidinylidene)hydrazone] | 26 | 1250 to 2500
Cl.Cn1c2ccccc2c(=NNc2nccs2)c2ccccc21 [10-methyl-9-acridanone (2-thiazolyl)hydrazone hydrochloride] | 9 | > 5000
